Data: US11191761B2, “SOMCL-9112 solid dispersion and preparation method thereof and SOMCL-9112 solid preparation containing SOMCL-9112 solid dispersion” (SHANGHAI INSTITUTE OF MATERIA MEDICA, CHINESE ACADEMY OF …, priority 2015, dated 2021)
≈ marks a conversion by molar mass, not a printed value. Values belong to the molecule of their own block, whether it stands above or below them.

Assays:
[1] = Permeability test using Caco-2 cell model; conditions: human
Protocol: (§1) Permeability Test: The permeability of SOMCL-9112 was evaluated using Caco-2 cell model.

P-gp = experiment: Permeability test using Caco-2 cell model; conditions: human
Protocol: as §1

[2] = Solubility of SOMCL-9112 API and solid dispersions in water and buffers (37° C., shaking); type: physicochemical; conditions: for solubility at 8 h: 37 °C, thermodynamic from solid
Protocol: The SOMCL-9112 solid dispersion prepared in this Example and the SOMCL-9112 API powder were dissolved in water, simulated gastric fluid (pH 1.2), phosphate buffer (pH 4.5) and simulated intestinal fluid (pH6.8) to measure the solubility of SOMCL-9112 (37° C., shaking at 100 rpm for 8 h). The solid dispersion was sampled at 4 h and 8 h.
The SOMCL-9112 solid dispersion prepared in this example was dissolved in water, simulated gastric fluid (pH 1.2), phosphate buffer (pH 4.5) and simulated intestinal fluid (pH6.8) to measure the solubility of SOMCL-9112 (37° C., shaking at 100 rpm for 8 h).
The SOMCL-9112 solid dispersion prepared in this example was dissolved in a simulated intestinal fluid (pH6.8) to measure the solubility of SOMCL-9112 (37° C., shaking at 100 rpm for 8 h).

[3] = Equilibrium solubility test (24 h, HPLC); type: physicochemical; conditions: thermodynamic from solid; for solubility thermodynamic at 24 h: 37° C., 100 rpm
Protocol: Equilibrium Solubility Test: The solubility of SOMCL9112 in a series of solvents was investigated. The main solvents included water, pH 1.2 simulated gastric fluid, pH 4.5 phosphate buffer, and pH 6.8 simulated intestinal fluid. 0.5 g of SOMCL-9112 API was taken and added to 100 ml of each of the above solvents. The mixture was shaken at 37° C. shaker at 100 rpm for 24 h. The supernatant was centrifuged at 8000 rpm for 15 min and the concentration of SOMCL-9112 was determined by HPLC.

[4] = molecular target: poly-ADP-ribose polymerase (PARP) (Homo sapiens, UniProt P09874); conditions: in words, no data shown; cited from earlier work
poly-ADP-ribose polymerase (PARP), sequence (P09874 whole entry): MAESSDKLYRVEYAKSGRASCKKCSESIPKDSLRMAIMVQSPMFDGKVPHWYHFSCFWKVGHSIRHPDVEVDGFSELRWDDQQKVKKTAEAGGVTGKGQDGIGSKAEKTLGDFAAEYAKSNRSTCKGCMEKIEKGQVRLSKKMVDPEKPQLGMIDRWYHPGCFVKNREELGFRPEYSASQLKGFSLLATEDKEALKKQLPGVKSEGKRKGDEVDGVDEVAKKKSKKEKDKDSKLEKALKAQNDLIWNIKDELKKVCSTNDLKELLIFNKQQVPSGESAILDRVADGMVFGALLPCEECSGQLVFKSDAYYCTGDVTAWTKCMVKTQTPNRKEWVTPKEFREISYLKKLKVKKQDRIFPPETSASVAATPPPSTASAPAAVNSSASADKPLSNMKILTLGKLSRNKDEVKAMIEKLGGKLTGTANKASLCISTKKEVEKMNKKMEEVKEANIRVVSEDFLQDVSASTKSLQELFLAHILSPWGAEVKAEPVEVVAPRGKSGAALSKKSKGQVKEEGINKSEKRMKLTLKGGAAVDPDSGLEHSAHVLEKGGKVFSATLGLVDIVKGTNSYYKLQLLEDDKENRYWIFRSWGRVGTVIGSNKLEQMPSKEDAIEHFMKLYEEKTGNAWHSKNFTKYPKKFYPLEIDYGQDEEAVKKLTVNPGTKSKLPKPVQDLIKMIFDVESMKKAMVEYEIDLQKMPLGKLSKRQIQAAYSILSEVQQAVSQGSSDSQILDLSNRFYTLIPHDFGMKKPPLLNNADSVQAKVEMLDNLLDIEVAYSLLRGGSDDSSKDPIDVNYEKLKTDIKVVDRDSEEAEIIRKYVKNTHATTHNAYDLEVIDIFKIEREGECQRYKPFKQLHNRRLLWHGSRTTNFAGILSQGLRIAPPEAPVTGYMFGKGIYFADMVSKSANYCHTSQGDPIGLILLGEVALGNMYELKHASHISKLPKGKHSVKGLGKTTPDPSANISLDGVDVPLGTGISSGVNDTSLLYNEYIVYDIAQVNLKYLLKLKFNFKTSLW

Caco-2 cell model = experiment: in vitro
Protocol: as §1

Papp A→B [1]: 0.09 ± 0.01 ×10⁻⁶ cm/s
Papp B→A [1]: 9.88 ± 1.41 ×10⁻⁶ cm/s
efflux ratio (P-gp): 109
SMILES: C[C@H]1O[C@@H](O[C@H]2[C@@H](O)C[C@H](O[C@H]3[C@@H](O)C[C@H](O[C@H]4CC[C@@]5(C)[C@H](CC[C@@H]6[C@@H]5C[C@@H](O)[C@]5(C)[C@@H](C7=CC(=O)OC7)CC[C@]65O)C4)O[C@@H]3C)O[C@@H]2C)C[C@H](O)[C@@H]1O [Digoxin, reference compound]

Papp A→B [1]: 10.5 ± 1.97 ×10⁻⁶ cm/s
Papp B→A [1]: 7.57 ± 0.6 ×10⁻⁶ cm/s
efflux ratio (P-gp): 0.72
SMILES: CC(C)NCC(O)COc1cccc2ccccc12 (stereo not drawn) [Propranolol, reference compound]

solubility at 8 h ([2]; pH 1.2, simulated gastric fluid): 10.5 µg/mL (≈ 21.6 µM)
solubility at 8 h ([2]; pH 4.5, aqueous buffer): 18.9 µg/mL (≈ 38.9 µM)
solubility at 8 h ([2]; pH 6.8, fassgf or other biorelevant): 15.4 µg/mL (≈ 31.7 µM)
solubility at 8 h ([2]; water): 15.8 µg/mL (≈ 32.5 µM)
solubility ([2]; fassgf or other biorelevant): ~10 µg/mL (≈ 20.6 µM)
solubility thermodynamic ([3]; 37 °C, aqueous buffer, pH 1.2-6.8 buffer saline solution): < 100 µg/mL
solubility thermodynamic at 24 h ([3]; aqueous buffer, pH 4.5 phosphate buffer): 18.6 µg/mL (≈ 38.2 µM)
solubility thermodynamic at 24 h ([3]; fassgf or other biorelevant, pH 6.8 simulated intestinal fluid): 16.2 µg/mL (≈ 33.3 µM)
solubility thermodynamic at 24 h ([3]; pH 1.2 simulated gastric fluid): 10.3 µg/mL (≈ 21.2 µM)
solubility thermodynamic at 24 h ([3]; water): 14.8 µg/mL (≈ 30.4 µM)
Papp A→B at 2 μM ([1]; Caco-2): 0.72 ×10⁻⁶ cm/s
Papp A→B at 10 μM ([1]; Caco-2): 0.26 ± 0.03 ×10⁻⁶ cm/s
Papp A→B at 50 μM ([1]; Caco-2): 0.34 ± 0.06 ×10⁻⁶ cm/s
Papp B→A at 2 μM ([1]; Caco-2): 16.3 ± 0.34 ×10⁻⁶ cm/s
Papp B→A at 10 μM ([1]; Caco-2): 16.1 ± 1.05 ×10⁻⁶ cm/s
Papp B→A at 50 μM ([1]; Caco-2): 18.7 ± 0.28 ×10⁻⁶ cm/s
efflux ratio at 2 μM (P-gp; Caco-2): 22.6
efflux ratio at 10 μM (P-gp; Caco-2): 61.9
efflux ratio at 50 μM (P-gp; Caco-2): 54.5
Permeability characteristic (Caco-2 cell model): low permeability characteristic
SMILES: CC1CN(C(=O)c2cc(Cc3n[nH]c(=O)c4ccccc34)ccc2F)Cc2nnc(C(F)(F)F)n21 (stereo not drawn) [SOMCL-9112, 4-(4-fluoro-3-(5-methyl-3-(trifluoromethyl)-5,6,7,8-4H-[1,2,4]triazolo[4,3-a]piperazine-7-carbonyl)benzyl)phthalazin-1(2H)-one]
Inhibitory effect on PARP [4]: significant inhibitory effect
